From the supplement of paper PMC10307832

Legend:
Experiment in all cases: relative viability (nuclei count vs DMSO), 5 days (fraction); higher = more cells survive
[1] = compound: Cc1cnc(CNC(=O)c2c(=O)c3ccc(N4CCCN(C)CC4)nc3n3c2sc2ccccc23)cn1 [CX-5461] + CS(=O)(=O)CCNCc1ccc(-c2ccc3ncnc(Nc4ccc(OCc5cccc(F)c5)c(Cl)c4)c3c2)o1 [Lapatinib] (partner 2 µM)
Outline: (§1)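 Relative viability is defined as nuclei in treated wells over nuclei in vehicle wells. Duplicate plates were run and medians reported. Lung cancer cell lines in 1536-well plates were dosed by pin tool one day after seeding, with one drug or with a fixed anchor-drug dose plus five library-drug doses (not always all listed) in √10 steps, and nuclei were counted after 5 days.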

[2] = compound: Cc1cnc(CNC(=O)c2c(=O)c3ccc(N4CCCN(C)CC4)nc3n3c2sc2ccccc23)cn1 [CX-5461] + O=C(c1cc(Cc2n[nH]c(=O)c3ccccc23)ccc1F)N1CCN(C(=O)C2CC2)CC1 [Olaparib] (partner 8 µM)
Outline: as §1

[3] = compound: O=C(Nc1cc(C(F)(F)F)cc(C(F)(F)F)c1)c1cc(Cl)ccc1O [IMD-0354] + Cc1cc(Nc2cc(N3CCN(C)CC3)nc(Sc3ccc(NC(=O)C4CC4)cc3)n2)n[nH]1 [Tozasertib] (partner 0.1 µM)
Outline: as §1

[4] = compound: O=C(Nc1cc(C(F)(F)F)cc(C(F)(F)F)c1)c1cc(Cl)ccc1O [IMD-0354] + Nc1ncn([C@H]2C[C@H](O)[C@@H](CO)O2)c(=O)n1 [Decitabine] (partner 2 µM)
Outline: as §1

| Cell Line | relative viability ([1]; first compound 0.01 µM) | relative viability ([1]; first compound 0.03162 µM) | relative viability ([1]; first compound 0.1 µM) | relative viability ([1]; first compound 0.3162 µM) | relative viability ([1]; first compound 1 µM) | relative viability ([2]; first compound 0.01 µM) | relative viability ([2]; first compound 0.03162 µM) | relative viability ([2]; first compound 0.1 µM) | relative viability ([2]; first compound 0.3162 µM) | relative viability ([2]; first compound 1 µM) | relative viability ([3]; first compound 0.04 µM) | relative viability ([3]; first compound 0.1265 µM) | relative viability ([3]; first compound 0.4 µM) | relative viability ([3]; first compound 1.265 µM) | relative viability ([3]; first compound 4 µM) | relative viability ([4]; first compound 0.04 µM) | relative viability ([4]; first compound 0.1265 µM) | relative viability ([4]; first compound 0.4 µM) | relative viability ([4]; first compound 1.265 µM) | relative viability ([4]; first compound 4 µM) |
| --- | --- | --- | --- | --- | --- | --- | --- | --- | --- | --- | --- | --- | --- | --- | --- | --- | --- | --- | --- | --- |
| NCI-H1915 | 1.01 | 1.06 | 0.99 | 0.379 | 1.04 | 0.259 | 0.255 | 0.242 | 0.262 | 0.252 | 0.482 | 0.412 | 0.299 | 0.268 | 0.175 | 0.299 | 0.267 | 0.224 | 0.25 | 0.169 |
| NCI-H1944 | 0.777 | 0.981 | 0.806 |  | 0.655 | 0.409 | 0.381 | 0.422 | 0.392 | 0.395 | 0.252 | 0.245 | 0.206 | 0.208 | 0.131 | 0.44 | 0.451 | 0.398 | 0.473 | 0.147 |
| NCI-H1975 | 1.14 | 0.921 | 0.855 | 0.927 | 0.386 | 0.898 | 0.822 | 0.68 | 0.853 | 0.558 | 0.814 | 0.864 | 0.399 | 0.111 | 0.148 | 0.389 | 0.409 | 0.36 | 0.2 | 0.21 |
| NCI-H1993 | 0.769 | 0.84 | 0.881 | 0.802 | 0.762 | 1.19 | 1.1 | 1.1 | 0.976 | 1.01 | 0.626 | 0.623 | 0.487 | 0.452 | 0.479 | 0.682 | 0.658 | 0.516 | 0.458 | 0.367 |
| NCI-H2009 | 0.906 | 1.04 | 0.584 | 0.39 | 0.466 | 0.631 | 0.621 | 0.616 | 0.672 | 0.565 | 0.877 | 0.752 | 0.51 | 0.24 | 0.139 | 0.374 | 0.408 | 0.288 | 0.18 | 0.134 |
| NCI-H2023 | 0.788 | 0.794 |  | 0.143 | 0.106 | 0.445 | 0.354 |  | 0.248 | 0.0686 | 0.338 | 0.296 | 0.23 | 0.126 | 0.117 | 0.262 | 0.222 | 0.167 | 0.0889 | 0.0963 |
